Measurements reported in US20240124491A1, “METHODS AND COMPOUNDS FOR TREATING FRIEDREICH'S ATAXIA” (Design Therapeutics, Inc., priority 2021, published 2024).

system: human FXN; test: EC50 assay: FXN mRNA expression by qRT-PCR in GM15850 cells after 48 hrs compound treatment; type: cell-based; conditions: Homo sapiens, 48 hrs incubation, hFXN expression normalized to hGAPDH (qRT-PCR), read-out: EC50 WT (nM, 48 hr)
Summary of the method: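 FXN transcript, normalized to GAPDH by TaqMan qRT-PCR, read out after 48 hrs of compound on GM15850 cells plated at 150,000 per well. Dosing used five 3-fold steps from 150 nM final, vehicle 0.01% DMSO.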

Row | Compound | EC50
1 | Cc1sc2c(c1C)C(c1ccc(Cl)cc1)=N[C@@H](CC(=O)N1CCC(CN3CCN(CCOCCOCCOCCOCCOCCOCCNC(=O)CCNC(=O)c4nc(NC(=O)CCNC(=O)C5=CC(NC(=O)c6nc(NC(=O)CCNC(=O)c7cc(NC(=O)c8nccn8C)cn7C)cn6C)CN5C)cn4C)CC3)CC1)c1nnc(C)n1-2 (stereo partly shown) [Compound 57] | 100 to 500 nM
2 | Cc1sc2c(c1C)C(c1ccc(Cl)cc1)=N[C@@H](CC(=O)N1CC(C#CC#CC3CN(CCOCCOCCOCCOCCNC(=O)CCNC(=O)c4nc(NC(=O)CCNC(=O)c5cc(NC(=O)c6nc(NC(=O)CCNC(=O)c7cc(NC(=O)c8nccn8C)cn7C)cn6C)cn5C)cn4C)C3)C1)c1nnc(C)n1-2 [Compound 126] | < 100 nM
3 | Cc1cc(F)cc(C)c1Oc1ccc(C(C)(C)O)cc1-c1cn(C)c(=O)c2[nH]c(C(=O)N3CCC(CN4CCN(CCOCCOCCOCCOCCOCCOCCNC(=O)CCNC(=O)c5nc(NC(=O)CCNC(=O)c6cc(NC(=O)c7nc(NC(=O)CCNC(=O)c8cc(NC(=O)c9nccn9C)cn8C)cn7C)cn6C)cn5C)CC4)CC3)cc12 [Compound 168] | 100 to 500 nM
4 | Cc1sc2c(c1C)C(c1ccc(Cl)cc1)=N[C@@H](CC(=O)NCCOCCOCCOCCN(CCOCCOCCOCCNC(=O)C[C@@H]1N=C(c3ccc(Cl)cc3)c3c(sc(C)c3C)-n3c(C)nnc31)CCOCCOCCOCCOCCOCCNC(=O)CCNC(=O)c1nc(NC(=O)CCNC(=O)c3cc(NC(=O)c4nc(NC(=O)CCNC(=O)c5cc(NC(=O)c6nccn6C)cn5C)cn4C)cn3C)cn1C)c1nnc(C)n1-2 [Compound 111] | < 100 nM
5 | Cc1sc2c(c1C)C(c1ccc(Cl)cc1)=N[C@@H](CC(=O)Nc1cncc(N3CCC(N4CCN(CCOCCOCCOCCOCCOCCOCCNC(=O)CCNC(=O)c5nc(NC(=O)CCNC(=O)c6cc(NC(=O)c7nc(NC(=O)CCNC(=O)c8cc(NC(=O)c9nccn9C)cn8C)cn7C)cn6C)cn5C)CC4)CC3)c1)c1nnc(C)n1-2 [Compound 125] | < 100 nM
6 | CCCCCCCC(=O)Nc1ccc(C2=N[C@@H](CC(=O)Nc3ccc(OCCOCCOCCOCCOCCOCCOCCOCCOCCNC(=O)CCNC(=O)c4nc(NC(=O)CCNC(=O)c5cc(NC(=O)c6nc(NC(=O)CCNC(=O)c7cc(NC(=O)c8nccn8C)cn7C)cn6C)cn5C)cn4C)cc3)c3nnc(C)n3-c3sc(C)c(C)c32)cc1 [Compound 203] | 100 to 500 nM
7 | Cc1sc2c(c1C)C(c1ccc(Cl)cc1)=N[C@@H](CC(=O)NC1CCN(CC#CC#CC3CCN(CCOCCOCCOCCNC(=O)CCNC(=O)c4nc(NC(=O)CCNC(=O)c5cc(NC(=O)c6nc(NC(=O)CCNC(=O)c7cc(NC(=O)c8nccn8C)cn7C)cn6C)cn5C)cn4C)CC3)CC1)c1nnc(C)n1-2 [Compound 156] | < 100 nM
8 | Cc1sc2c(c1C)C(c1ccc(NC(=O)COCCOCCOCCN3CCN(CC4CCN(C)CC4)CC3)cc1)=N[C@@H](CC(=O)N1CCC(C#CC#CC3CCN(CCOCCOCCOCCOCCNC(=O)CCNC(=O)c4nc(NC(=O)CCNC(=O)c5cc(NC(=O)c6nc(NC(=O)CCNC(=O)c7cc(NC(=O)c8nccn8C)cn7C)cn6C)cn5C)cn4C)CC3)CC1)c1nnc(C)n1-2 [Compound 121] | 100 to 500 nM
9 | Cc1sc2c(c1C)C(c1ccc(Cl)cc1)=N[C@@H](CC(=O)NC1CCN(CCOCCOCCOCCC(=O)NC3(C(=O)NCCOCCOCCOCCOCCNC(=O)CCNC(=O)c4nc(NC(=O)CCNC(=O)c5cc(NC(=O)c6nc(NC(=O)CCNC(=O)c7cc(NC(=O)c8nccn8C)cn7C)cn6C)cn5C)cn4C)CCN(CC(F)(F)F)CC3)CC1)c1nnc(C)n1-2 [Compound 73] | 100 to 500 nM
10 | COc1ccc2c(c1)C(c1ccc(Cl)cc1)=N[C@@H](CC(=O)N1CCC(C#CC#CCNCCOCCOCCOCCOCCOCCNC(=O)CCNC(=O)c3nc(NC(=O)CCNC(=O)c4cc(NC(=O)c5nc(NC(=O)CCNC(=O)c6cc(NC(=O)c7nccn7C)cn6C)cn5C)cn4C)cn3C)CC1)c1nnc(C)n1-2 [Compound 41] | < 100 nM
11 | Cc1sc2c(c1C)C(c1ccc(Cl)cc1)=N[C@@H](CC(=O)N1CCC(C#CC#CCNCCOCCNC(=O)CCNC(=O)c3nc(NC(=O)CCNC(=O)c4cc(NC(=O)c5nc(NC(=O)CCNC(=O)c6cc(NC(=O)c7nccn7C)cn6C)cn5C)cn4C)cn3C)CC1)c1nnc(C)n1-2 [Compound 163] | < 100 nM
12 | Cc1sc2c(c1C)C(c1ccc(Cl)cc1)=N[C@@H](CC(=O)N1CCC(C#CC#CCNCCOCCOCCOCCOCCNC(=O)CCNC(=O)c3nc(NC(=O)CCNC(=O)c4cc(NC(=O)c5nc(NC(=O)CCNC(=O)c6cc(NC(=O)c7nccn7C)cn6C)cn5C)cn4C)cn3C)CC1)c1nnc(C)n1-2 [Compound 79] | < 100 nM
13 | COCCOCCOCCOCCOCCOCCOCCOCCOCCOCCOCCOCCOCCOCCOCCOCCC(=O)N(CC#CC#Cc1ccc(NC(=O)C[C@@H]2N=C(c3ccc(Cl)cc3)c3c(sc(C)c3C)-n3c(C)nnc32)cc1)CCOCCOCCOCCOCCOCCNC(=O)CCNC(=O)c1nc(NC(=O)CCNC(=O)c2cc(NC(=O)c3nc(NC(=O)CCNC(=O)c4cc(NC(=O)c5nccn5C)cn4C)cn3C)cn2C)cn1C [Compound 58] | 100 to 500 nM
14 | Cc1sc2c(c1C)C(c1ccc(Cl)cc1)=N[C@@H](CC(=O)Nc1ccc(N3CCC(N4CCN(CCOCCOCCOCCOCCOCCNC(=O)CCNC(=O)c5nc(NC(=O)CCNC(=O)c6cc(NC(=O)c7nc(NC(=O)CCNC(=O)c8cc(NC(=O)c9nccn9C)cn8C)cn7C)cn6C)cn5C)CC4)CC3)cc1)c1nnc(C)n1-2 [Compound 9] | < 100 nM
15 | Cc1sc2c(c1C)C(c1ccc(Cl)cc1)=N[C@@H](CC(=O)Nc1ccc(C#CC#CCN(CCOCCOCCOCCOCCOCCN)CCOCCOCCOCCOCCOCCNC(=O)CCNC(=O)c3nc(NC(=O)CCNC(=O)c4cc(NC(=O)c5nc(NC(=O)CCNC(=O)c6cc(NC(=O)c7nccn7C)cn6C)cn5C)cn4C)cn3C)cc1)c1nnc(C)n1-2 [Compound 104] | 100 to 500 nM
16 | CC(=O)Nc1c(F)cc(C(=O)NC2CCN(CCOCCOCCOCCOCCOCCOCCOCCOCCNC(=O)CCNC(=O)c3nc(NC(=O)CCNC(=O)c4cc(NC(=O)c5nc(NC(=O)CCNC(=O)c6cc(NC(=O)c7nccn7C)cn6C)cn5C)cn4C)cn3C)CC2)cc1O[C@@H](C)c1ccccc1 [Compound 48] | > 500 nM
17 | Cc1noc2c1-c1ccccc1C(c1ccc(Cl)cc1)=N[C@H]2CC(=O)Nc1ccc(C#CC#CCNC(=O)COCCOCCOCCOCCOCCNC(=O)CCNC(=O)c2nc(NC(=O)CCNC(=O)c3cc(NC(=O)c4nc(NC(=O)CCNC(=O)c5cc(NC(=O)c6nccn6C)cn5C)cn4C)cn3C)cn2C)cc1 [Compound 84] | > 500 nM
18 | Cc1sc2c(c1C)C(c1ccc(Cl)cc1)=N[C@H](CC(=O)Nc1ccc(OCCOCCOCCOCCOCCOCCOCCOCCOCCNC(=O)CCNC(=O)c3nc(NC(=O)CCNC(=O)c4cc(NC(=O)c5nc(NC(=O)CCNC(=O)c6cc(NC(=O)c7nccn7C)cn6C)cn5C)cn4C)cn3C)cc1)c1nnc(C)n1-2 [Compound 231] | < 100 nM
19 | Cc1sc2c(c1C)C(c1ccc(Cl)cc1)=N[C@@H](CC(=O)NC1CCN(CC#CC#CC3CCN(CCOCCOCCOCCOCCOCCOCCOCCNC(=O)CCNC(=O)c4nc(NC(=O)CCNC(=O)c5cc(NC(=O)c6nc(NC(=O)CCNC(=O)c7cc(NC(=O)c8nccn8C)cn7C)cn6C)cn5C)cn4C)CC3)CC1)c1nnc(C)n1-2 [Compound 157] | < 100 nM
20 | Cc1sc2c(c1C)C(c1ccc(Cl)cc1)=N[C@@H](CC(=O)N[C@H]1CC[C@H](N(C)CCOCCOCCOCCN3CCN(CCOCCOCCOCCNC(=O)CCNC(=O)c4nc(NC(=O)CCNC(=O)c5cc(NC(=O)c6nc(NC(=O)CCNC(=O)c7cc(NC(=O)c8nccn8C)cn7C)cn6C)cn5C)cn4C)CC3)CC1)c1nnc(C)n1-2 [Compound 21] | > 500 nM
21 | Cc1sc2c(c1C)C(c1ccc(Cl)cc1)=N[C@@H](CC(=O)NC1CCN(C(C)(C)C#CC#CC3CCN(CCOCCOCCOCCOCCOCCNC(=O)CCNC(=O)c4nc(NC(=O)CCNC(=O)c5cc(NC(=O)c6nc(NC(=O)CCNC(=O)c7cc(NC(=O)c8nccn8C)cn7C)cn6C)cn5C)cn4C)CC3)CC1)c1nnc(C)n1-2 [Compound 151] | < 100 nM
22 | Cc1sc2c(c1C)C(c1ccc(Cl)cc1)=N[C@@H](CC(=O)NC1CCN(CCOCCN3CCC(CN4CCN(CCOCCOCCOCCNC(=O)CCNC(=O)c5nc(NC(=O)CCNC(=O)c6cc(NC(=O)c7nc(NC(=O)CCNC(=O)c8cc(NC(=O)c9nccn9C)cn8C)cn7C)cn6C)cn5C)CC4)CC3)CC1)c1nnc(C)n1-2 [Compound 35] | 100 to 500 nM
